Measurements as given in patent US20160310584A1, “FORMULATIONS FOR NEOPLASIA VACCINES” (THE BROAD INSTITUTE INC., priority 2013, published 2016).

Tests used:
[1] = Peptide solubility evaluation: dissolution in DMSO, dilution in D5W with or without succinate; assay type: physicochemical; details: DMSO/D5W; Table 4; Y/N; diluted to 2 mg/ml; read-out: Solubility In DMSO/D5W
Method: In a representative procedure, peptides were weighed and corrected for % peptide content, and then dissolved in DMSO to a concentration of 50 mg/mL. The DMSO/Peptide solution was then diluted with 5 mM sodium succinate in D5W to a 2 mg/mL peptide concentration.
Additional peptide solubility conditions were tested. Peptides CS6709, CS6712, CS6720, CS6726, and CS6783 were weighed at approximately 10 mg each. The peptides were then dissolved in approximately 200 μL USP grade DMSO to obtain a 50 mg/mL concentration for each peptide. […] Additional 50 μL increments of DMSO were added to Peptide CS6709 up to 400 μL; for a total of 600 μL of DMSO.
Based on gross weight and peptide content, 15 mg (net weight) or slightly more of each individual peptide are weighed and 100% USP Grade DMSO […] is added to achieve a final peptide concentration of 50 mg/ml.

[2] = Peptide diluent matrix (precipitation on dilution of DMSO dissolved peptides); assay type: physicochemical; details: 5 peptides in one vial diluted to 400 μg/mL
Method: Additional peptide solubility conditions were tested. Peptides CS6709, CS6712, CS6720, CS6726, and CS6783 were weighed at approximately 10 mg each. The peptides were then dissolved in approximately 200 μL USP grade DMSO to obtain a 50 mg/mL concentration for each peptide. […] The sample appeared to be cloudy. […] The volume of CS6709 added to the single vial was 120 μL. […] Upon addition of the PBS pH 7.4, it was observed that one or more of the peptides had precipitated out. To determine which of the peptides precipitated, Applicants followed the matrix in Table 5 below using very small amounts (10-20 μL) of the DMSO dissolved peptides and adding these peptides to the various liquids.

H-LLTDRNTSGTTFTLLGVSDYPELQVPLFLVFLA-OH [CS6783]
solubility [1]: < 2000 µg/mL
Precipitation when PBS pH 7.4 was added as diluent to the peptide mixture [2]: precipitate
